In US8883745B2, “C—glycolipids with enhanced Th-1 profile” (New York University, priority 2006, dated 2014):

Legend:
Assay type in all cases: in vivo
IL-12 = IL-12 levels in sera upon i.v. glycolipid administration to C57BL/6 mice (ELISA); set-up: IL-12 levels, test 1 / IL-12 levels, test 2 / IL-12 levels, average / IL-12 levels, Total: unit not given here
Method: (§1) Five- to six-week-old female C57BL/6 mice and BALB/c mice were purchased from Taconic. Each glycolipid was stored at 1 mg/ml in 100% DMSO. Mice were injected intravenously with 1 μg of each glyocolipid diluted in 200 μL sterile phosphate buffered saline (PBS). At indicated time points, sera were collected from each animal, and concentrations of IFN-γ, IL-4, and IL-12 in the sera were evaluated by enzyme-linked immunosorbent assay (ELISA). Serum concentrations of IFN-γ, IL-4, and IL-12 were evaluated using an ELISA kit (eBioscience, San Diego, Calif.). Briefly, 96 well flat-bottom ELISA plates (NUNC) were coated with capture antibody according to the manufacture's recommendation and incubated overnight at 4° C. The plates were washed with PBS+0.05% Tween 20 (PBS-T), then incubated with manufacturer provided blocking solution for 1 hr at room temperature to block non-specific binding sites. After washing with PBS-T, sera diluted 1:10 was added to the wells and incubated for 2 hrs at room temperature. Plates were then incubated at room temperature for 1 hr with biotintylated detection antibody, washed, incubated with avidin conjugated to horse radish peroxidase (HRP) for 30 min at room temperature, washed, and finally incubated with tetramethylbenzidine substrate solution in the dark for 10 minutes at room temperature. The antibodies, avidin-HRP, and substrate solution were all diluted according to the manufacture's recommendation. Reactions were stopped with 2.0N sulfuric acid and the cytokine concentration in each well was determined by comparing the absorbance at 450 nm in each well to known standards. The levels of Th1- and Th2-type cytokines were determined in two different genetic backgrounds, i.e., in C57BL/6 mice and BALB/c mice. The following compounds were administered: A=compound (A-1 trans-conformer), B=compound (A-2), C=compound (A-3), D=compound (A-4), E=compound (A-5), Z=control (PBS alone), CRONY=α-C-GalCer, KRN=α-GalCer, GCK109 (A-1 trans-conformer), GCK151 (A-1 cis-conformer), GCK152 (A-7). The levels of cytokines were measured at 0, 2, 6, 12, 24, 48, and 72 hours after the compound administration. The levels of Th1-type cytokines IFN-γ and IL-12 are summarized in FIGS. 2A-C and 3A-C, respectively. Table 7 provides IFN-γ/IL-4 and IL-12/IL-4 ratios for various compounds, which can be used as indicators of their ability to selectively stimulate Th1-type immune responses.

IL-4 [1] = experiment: IL-4 levels in sera upon i.v. glycolipid administration to BALB/c mice (ELISA); set-up: unit not given here
Method: as §1

IFN-γ = IFN-γ levels in sera upon i.v. glycolipid administration to BALB/c mice (ELISA); set-up: IFN-γ levels, test 1 / IFN-γ levels, test 2 / IFN-γ levels, average / IFN-γ levels, Total: unit not given here; settings: BALB/c
Method: as §1

IL-4 [2] = experiment: IL-4 levels in sera upon i.v. glycolipid administration to C57BL/6 mice (ELISA); set-up: unit not given here
Method: as §1

In the case of CCCCCCCCCCCCCC[C@@H](O)[C@@H](O)[C@H](CC[C@H]1O[C@H](CO)[C@H](O)[C@H](O)[C@H]1O)NC(=O)CCCCCCCCCCCCCCCCCCCOCCCCCC [A-4], the “IL-12/IL-4 (B6)” value (IL-12; C57BL/6, ratio calculated from Tables 1-6) is reported as 1.3, the “IL-12 levels, average” value (IL-12; C57BL/6, serum, hour 0) is reported as 5 and the “IL-12 levels, test 1” value (IL-12; C57BL/6, serum, hour 0) is reported as 5. The “IL-12 levels, test 2” value (IL-12; C57BL/6, serum, hour 0) was 5, the “IL-12 levels, average” value (IL-12; C57BL/6, serum, hour 2) was 458.5 and the “IL-12 levels, test 1” value (IL-12; C57BL/6, serum, hour 2) was 490. The “IL-12 levels, test 2” value (IL-12; C57BL/6, serum, hour 2) was 427, the “IL-12 levels, average” value (IL-12; C57BL/6, serum, hour 6) was 685.5 and the “IL-12 levels, test 1” value (IL-12; C57BL/6, serum, hour 6) was 740. For the same compound, the “IL-12 levels, test 2” value (IL-12; C57BL/6, serum, hour 6) was 631, the “IL-12 levels, average” value (IL-12; C57BL/6, serum, hour 12) was 124 and the “IL-12 levels, test 1” value (IL-12; C57BL/6, serum, hour 12) was 18. For the same compound, the “IL-12 levels, test 2” value (IL-12; C57BL/6, serum, hour 12) was 230, the “IL-12 levels, average” value (IL-12; C57BL/6, serum, hour 24) was 0 and the “IL-12 levels, test 1” value (IL-12; C57BL/6, serum, hour 24) was 0. The “IL-12 levels, test 2” value (IL-12; C57BL/6, serum, hour 24) was 0, the “IL-12 levels, average” value (IL-12; C57BL/6, serum, hour 48) was 0 and the “IL-12 levels, test 1” value (IL-12; C57BL/6, serum, hour 48) was 0. The “IL-12 levels, test 2” value (IL-12; C57BL/6, serum, hour 48) was 0, the “IL-12 levels, average” value (IL-12; C57BL/6, serum, hour 72) was 0 and the “IL-12 levels, test 1” value (IL-12; C57BL/6, serum, hour 72) was 0. The “IL-12 levels, test 2” value (IL-12; C57BL/6, serum, hour 72) was 0, the “IL-12 levels, Total” value (IL-12; C57BL/6, serum, total over hours 0-72) was 1274 and the “IL-4 level, average” value (IL-4 [1]; hour 0) was 27. For the same compound, the “IL-4 level, test 1” value (IL-4 [1]; hour 0) was 27, the “IL-4 level, test 2” value (IL-4 [1]; hour 0) was 27 and the “IL-4 level, average” value (IL-4 [1]; hour 2) was 207. For the same compound, the “IL-4 level, test 1” value (IL-4 [1]; hour 2) was 200, the “IL-4 level, test 2” value (IL-4 [1]; hour 2) was 214 and the “IL-4 level, average” value (IL-4 [1]; hour 6) was 79.5. The “IL-4 level, test 1” value (IL-4 [1]; hour 6) was 85, the “IL-4 level, test 2” value (IL-4 [1]; hour 6) was 74 and the “IL-4 level, average” value (IL-4 [1]; hour 12) was 58. For the same compound, the “IL-4 level, test 1” value (IL-4 [1]; hour 12) was 64, the “IL-4 level, test 2” value (IL-4 [1]; hour 12) was 52 and the “IL-4 level, average” value (IL-4 [1]; hour 24) was 67.5. For the same compound, the “IL-4 level, test 1” value (IL-4 [1]; hour 24) was 50, the “IL-4 level, test 2” value (IL-4 [1]; hour 24) was 85 and the “IL-4 level, average” value (IL-4 [1]; hour 48) was 59. For the same compound, the “IL-4 level, test 1” value (IL-4 [1]; hour 48) was 52, the “IL-4 level, test 2” value (IL-4 [1]; hour 48) was 66 and the “IL-4 level, average” value (IL-4 [1]; hour 72) was 12. The “IL-4 level, test 1” value (IL-4 [1]; hour 72) was 12, the “IL-4 level, test 2” value (IL-4 [1]; hour 72) was 12 and the “IL-4 level, Total” value (IL-4 [1]; total over hours 0-72) was 511. For the same compound, the “IFN-γ/IL-4 (BALB/c)” value (IFN-γ; ratio calculated from Tables 1-6) was 44, the “IFN-γ levels, average” value (IFN-γ; serum, hour 0) was 27 and the “IFN-γ levels, test 1” value (IFN-γ; serum, hour 0) was 27. For the same compound, the “IFN-γ levels, test 2” value (IFN-γ; serum, hour 0) was 27, the “IFN-γ levels, average” value (IFN-γ; serum, hour 2) was 142.5 and the “IFN-γ levels, test 1” value (IFN-γ; serum, hour 2) was 140. The “IFN-γ levels, test 2” value (IFN-γ; serum, hour 2) was 145, the “IFN-γ levels, average” value (IFN-γ; serum, hour 6) was 1742 and the “IFN-γ levels, test 1” value (IFN-γ; serum, hour 6) was 1778. The “IFN-γ levels, test 2” value (IFN-γ; serum, hour 6) was 1706, the “IFN-γ levels, average” value (IFN-γ; serum, hour 12) was 6513.5 and the “IFN-γ levels, test 1” value (IFN-γ; serum, hour 12) was 4988. The “IFN-γ levels, test 2” value (IFN-γ; serum, hour 12) was 8039, the “IFN-γ levels, average” value (IFN-γ; serum, hour 24) was 14100 and the “IFN-γ levels, test 1” value (IFN-γ; serum, hour 24) was 14000. For the same compound, the “IFN-γ levels, test 2” value (IFN-γ; serum, hour 24) was 14200, the “IFN-γ levels, average” value (IFN-γ; serum, hour 48) was 929.5 and the “IFN-γ levels, test 1” value (IFN-γ; serum, hour 48) was 752. For the same compound, the “IFN-γ levels, test 2” value (IFN-γ; serum, hour 48) was 1107, the “IFN-γ levels, average” value (IFN-γ; serum, hour 72) was 56.5 and the “IFN-γ levels, test 1” value (IFN-γ; serum, hour 72) was 47. For the same compound, the “IFN-γ levels, test 2” value (IFN-γ; serum, hour 72) was 66, the “IFN-γ levels, Total” value (IFN-γ; serum, total over hours 0-72) was 22676 and the “IL-4 level, average” value (IL-4 [2]; hour 0) was 46. The “IL-4 level, test 1” value (IL-4 [2]; hour 0) was 46, the “IL-4 level, test 2” value (IL-4 [2]; hour 0) was 46 and the “IL-4 level, average” value (IL-4 [2]; hour 2) was 696.5. For the same compound, the “IL-4 level, test 1” value (IL-4 [2]; hour 2) was 627, the “IL-4 level, test 2” value (IL-4 [2]; hour 2) was 766 and the “IL-4 level, average” value (IL-4 [2]; hour 6) was 126. For the same compound, the “IL-4 level, test 1” value (IL-4 [2]; hour 6) was 83, the “IL-4 level, test 2” value (IL-4 [2]; hour 6) was 169 and the “IL-4 level, average” value (IL-4 [2]; hour 12) was 43.5. The “IL-4 level, test 1” value (IL-4 [2]; hour 12) was 40, the “IL-4 level, test 2” value (IL-4 [2]; hour 12) was 47 and the “IL-4 level, average” value (IL-4 [2]; hour 24) was 29.5. The “IL-4 level, test 1” value (IL-4 [2]; hour 24) was 29, the “IL-4 level, test 2” value (IL-4 [2]; hour 24) was 30 and the “IL-4 level, average” value (IL-4 [2]; hour 48) was 28.5. For the same compound, the “IL-4 level, test 1” value (IL-4 [2]; hour 48) was 39, the “IL-4 level, test 2” value (IL-4 [2]; hour 48) was 18 and the “IL-4 level, average” value (IL-4 [2]; hour 72) was 41.5. The “IL-4 level, test 1” value (IL-4 [2]; hour 72) was 54, the “IL-4 level, test 2” value (IL-4 [2]; hour 72) was 29 and the “IL-4 level, Total” value (IL-4 [2]; total over hours 0-72) was 1014.
